Results taken from patent US8088951B2, “Epigenetic mechanisms re-establish access to long-term memory after neuronal loss” (Massachusetts Institute of Technology, priority 2006, dated 2012).

Test system: CK-p25 Tg mice
Assay: Water maze learning in CK-p25 Tg mice after neurodegeneration
Assay type: in vivo
Settings: 6 weeks p25 induction, then daily 1.2 g/kg for 4 weeks, vs vehicle, P<0.0001
Source text: Learning tests: All behavioral testing is described in Fischer et al. (3).
Reinstatement of learning behavior through inhibition of HDAC. Whether sustained inhibition of HDACs would reinstate learning behavior and recover access to long-term memories in CK-p25 Tg mice that had developed synaptic and neuronal loss was investigated. P25 was induced in 11 month old CK-p25 Tg mice for 6 weeks. Afterwards p25 expression was repressed and one group of CK-p25 Tg mice was subjected to daily sodiumbutyrate (SB) injection (1.2 g/kg) for 4 weeks (n=9), whereas the other group received saline injection (n=9). […] To this end p25 expression was induced in 11-month old CK-p25 mice for 6 weeks, before one group was injected daily for 4 weeks with SB whereas the control group received saline injection (FIG. 4a).

CCCC(=O)[O-].[Na+] [SB, sodiumbutyrate]
spatial learning (escape latency): significantly shorter escape latency
